{
  "source": "patent US11730795B2",
  "about": "“Pharmaceuticals and dosing means for human aging reversal” (INTERVENE IMMUNE, INC., priority 2017, dated 2023)",
  "key": {"insulin": {"system": "insulin", "assay_type": "in vivo, human", "conditions": "for control of GH-induced hyperinsulinemia by single agent: each agent alone with GH", "from_the_text": "(§1) Data variability was minimized and controlled by using each volunteer as their own control, and by standardizing the time and day of blood sampling. Blood was generally collected between 7 AM and 10 AM to avoid the effects of circadian and other temporal influences. In addition, patients standardized their pre-testing evening meal, used consistent testing sites and methods, and were redundantly tested between pre-established time points in some cases. All volunteers were asked to take supplements of 3000 IU vitamin D3 and 50 mg of elemental zinc daily. Further, volunteers were instructed not to consume food or alcohol within 4 hours of medication administration.\n(§2) The initial dose of GH was 0.015 mg/kg, injected subcutaneously into superficial abdominal fat using a provided “pen” injector designed for this purpose. GH doses were varied over the time course described above so as to maximize IGF1, and were not adjusted for any changes in body weight.\nHere, for context, insulin blood levels are expressed as a fraction of the distance from the bottom of the normal range to the top of the normal range. Although insulin control was not perfect, the final increase in insulin at trial end was acceptable based on volunteers averaging about one fifth of the upper limit for insulin. […] . Insulin and the normal insulin range were as reported by Quest Diagnostics."}, "prostate": {"system": "prostate", "test": "Report of one individual: prostatic hypertrophy with DHEA", "assay_type": "in vivo, human", "from_the_text": "Accordingly, our results, methods, and medication compositions and combinations enable beneficial new treatments to improve human health and enable beneficial new drug indications."}, "[1]": {"conditions": "50 mg per day, 65-75 year old men, no GH, ref [46]; cited from earlier work"}, "[2]": {"test": "TRIIM trial: testosterone levels and benign prostatic hypertrophy under DHEA", "conditions": "with GH or GH plus metformin", "excerpt": "Nine normal, putatively healthy 50-65 year-old male volunteers with normal age-related thymic involution were enrolled in and completed a clinical study performed under an IND from the US Food and Drug Administration and separate supervision from a California Institutional Review Board. […] The TRIIM trial (standing for Thymus Regeneration, Immunorestoration, and Insulin Mitigation) treatment period was limited to 12 months. Exclusion criteria included GH use in the prior 10 years, carpal tunnel syndrome, malignancies or high risk of malignancy, BMI greater than 30, PSA above the age-adjusted range, symptomatic prostatic hypertrophy, unstable metabolic disorders, unstable cardiovascular disorders, elevated levels of inflammatory markers, alcoholism, allergy to study medications, cognitive impairment, abnormal metabolic or hormonal results, existing type 1 or type 2 diabetes, or other unstable medical conditions."}, "[3]": {"test": "Tolerability of high metformin doses", "assay_type": "in vivo, human", "protocol": "We were able to use higher doses with minimal to no difficulty by devising the following dosing methods.\nIn these methods, “dinner” need not be taken literally, the essence of the concept being to essentially administer a large virtual dose by combining two smaller doses that are administered within an effective time span, which may be 1-5 hours in duration, but preferably 1-2 hours in duration, to reduce side effects such as gastric distress while still enabling increased control of hyperinsulinemia."}, "epigenetic age": {"system": "epigenetic age", "conditions": "women, ref [35]; cited from earlier work"}, "CD4/CD8 cell ratio": {"system": "CD4/CD8 cell ratio", "test": "TRIIM trial: CD4/CD8 cell ratio", "assay_type": "in vivo, human", "conditions": "peak at 3, 6-9 or 12 months in different men; one non-responder", "from_the_text": "as §1, §2\nThe decline of CD4/CD8 cell ratio with aging is a classical indication of the “immune risk phenotype” or immunosenescence, and appears to occur with or without chronic viral exposure and has been a strong predictor of the short-term risk of death. Our results therefore indicate that prior art methods of regenerating the thymus require improvement. […]"}},
  "data": [
    {"compound": "C[C@]12CC[C@H](O)CC1=CC[C@@H]1[C@@H]2CC[C@]2(C)C(=O)CC[C@@H]12", "note": "[DHEA, dehydroepiandrosterone]", "values": [
      {"measurement": "control of GH-induced hyperinsulinemia by single agent", "setting": "insulin", "value": "neither agent alone was sufficient"},
      {"measurement": "prostatic hypertrophy", "setting": "prostate; DHEA alone or in combination with metformin", "value": "caused immediate and significant prostatic hypertrophy"},
      {"measurement": "prostatic hypertrophy", "setting": "prostate; DHEA in combination with both metformin and GH", "value": "actually reversed"},
      {"measurement": "glucose tolerance", "setting": "[1]", "value": "improve glucose tolerance"},
      {"measurement": "raising of testosterone levels", "setting": "[2]; doses up to 200 mg", "value": "not found"},
      {"measurement": "induction of benign prostatic hypertrophy", "setting": "[2]", "value": "not found"}
    ]},
    {"compound": "CN(C)C(=N)N=C(N)N", "note": "[metformin]", "values": [
      {"measurement": "control of GH-induced hyperinsulinemia", "setting": "insulin; 850-1200 mg metformin, morning after GH dose, even with DHEA", "value": "very insufficient"},
      {"measurement": "control of GH-induced hyperinsulinemia by single agent", "setting": "insulin", "value": "neither agent alone was sufficient"},
      {"measurement": "tolerability", "setting": "[3]; 500 mg with dinner plus 1000 mg with HGH and DHEA, total 1500 mg", "value": "universally well tolerated"},
      {"measurement": "tolerability", "setting": "[3]; 1500 mg at dinner plus 1000 mg with DHEA and HGH at bedtime, 2500 mg", "value": "well tolerated"},
      {"measurement": "tolerability", "setting": "[3]; 1500 or 2000 mg in one dose with GH at bedtime", "value": "well tolerated"},
      {"measurement": "effect on epigenetic aging", "setting": "epigenetic age", "value": "not shown to either slow or reverse epigenetic aging"}
    ]},
    {"compound": "human growth hormone [GH]", "values": [
      {"measurement": "course of CD4/CD8 cell ratio", "setting": "CD4/CD8 cell ratio", "value": "peaks in the face of a constant or an increasing dose of GH or rise in IGF-1, and thereafter declines"},
      {"measurement": "insulin level with GH alone", "setting": "insulin; in vivo", "value": "rise in insulin"}
    ]}
  ]
}
